Patent US5831000A, “Hybrid calcitonin” (Chugai Seiyaku Kabushiki Kaisha, priority 1990, dated 1998)
Several values for one entry are separate records, joined by “and”; a condition that tells them apart may be missing. Identical values can stand only once. Like-named read-outs stand apart in the source and are kept apart here. Positions of bridges follow the written chain, without caps; N, C: chain ends. Residues, ends and D or L forms follow the SMILES beside them.

Tests used:
[1] = system: Female beagles; conditions: dog, in vivo
Description: (§1) One hour later, enteric aspirin tablets (containing 200 mg of the active ingredient) were administered orally together with 25 ml of water. Thereafter, blood samples were taken from the other cephalic vein at given time intervals, and the plasma obtained in the usual manner was stored at -20° C. until measurement.
(§2) As it passes through the intestinal wall, most of the ingested aspirin is metabolized and enters the blood stream as salicylic acid. […] Ethanol (200 μl) was added to 50 μl of plasma and the mixture was centrifuged at 10,000 rpm×1 min, with the resulting supernatant being subjected to HPLC.
(§3) The difference between the time from calcitonin administration to the absorption of aspirin and the time from physiological saline administration to the absorption of aspirin was calculated for each animal to determine the delay in gastric emptying time.

[2] = system: hypercalcemic rats; test: Efficacy of calcitonins against hypercalcemia (vitamin D3 hypercalcemic rats); type: in vivo, rat; conditions: 4 IU/kg subcutaneously, FIG. 1
Description: Vitamin D3 (5 mg/kg) was administered orally to 5-wk old SD male rats for 4 consecutive days to construct experimental models of hypercalcemic rats. […] Blood was sampled at given time intervals and the concentration of calcium in plasma was measured.

[3] = system: conscious dog; test: Effects of calcitonins on gastrointestinal motility (IMC) in conscious dog; type: in vivo, beagle dog; conditions: for effect on the IMC / gastrointestinal motility: i.v., conscious dog, summary of Table 10
Source text: A healthy beagle dog weighing about 10 kg was anesthetized with an i.v. injection of pentobarbital sodium and the abdominal cavity was opened under aseptic conditions.
Extraluminal force transducers were sutured onto the serosa of the gastric antrum stomach, duodenum and jejunum to measure circular muscle contraction, as reported previously (Itoh et al. Gastroenterol Jpn. 12, 275 1977).
The lead wires of these transducers were out of the abdominal cavity and then brought out through a skin incision made between the scapulae.
After the abdominal surgery, a 5-cm longitudinal skin incision was made in the right Frontal neck to expose the external jugular vein.
After the operation, a jacket protector was placed on the dog to protect the lead wires and the Silastic tube.
The dog was housed in individual experimental cage, and given commercial dog food at 5:00 P.M. and water was given freely.
The gastrointestinal motor activity was recorded on a thermal pen writing recorder (WR-3101, Graphtic, Tokyo, Japan) by connecting the lead wires of the transducers to the connecting cables from the amplifiers (UG-5, Nihon Kohden, Tokyo, Japan).
About two weeks postoperation, gastrointestinal contractile activity could be divided into two main patterns of activity, the interdigestive and digestive states.
In the interdigestive state, IMC (interdigestive migrating motor complex) were seen to occur at regular intervals of 100 to 120 min. in the gastric antrum, and migrated through the duodenum and jejunum at a constant velocity.
In all animals, feeding disrupted the regular IMC pattern. Experiments were carried out during interdigestive state. The drug was dissolved into 0.9% saline and administered through the indwelling Silastic tube for about 10 seconds in a volume of 0.3 ml/kg.
15 Min after the end of the IMC in the gastric antrum, which were subsequently flushed in with 0.9% saline.
The time until the next IMC is occurred from administration of the drug was measured, and used as a index for inhibitory activity of the drug on gastrointestinal motility.

[4] = system: anti-salmon calcitonin human sera; test: Cross reaction between anti-salmon calcitonin human antibody and hybrid calcitonin (competition with 125I labelled salmon calcitonin); type: binding; conditions: anti-salmon calcitonin human sera Nos. 1-4, FIG. 5
Description: Salmon calcitonin was synthesized by an ordinary procedure of solid-phase synthesis. Salmon calcitonin labelled with ^125 I was prepared by the Tejedor method (Tejedor, F. and Ballesta, J. P. G.; Analytical Biochemistry, 127, 143-149 (1982)).
Four types of human sera that had been verified to contain antibody after administration of salmon calcitonin were furnished from Dr. Frederick R. Singer (CEDERS-SINAI MEDICAL CENTER). The antibody titres of those sera against salmon calcitonin were as follows:
A 0.1M borate buffer solution (pH 8.0) containing 0.5% BSA, 0.9% NaCl, 0.1% NaN3 and 0.05% Tween 20 was used as a reaction buffer. This reaction buffer, anti-salmon calcitonin human serum (diluted with the reaction buffer to a final dilution of 100-6,400) and a solution of labelled calcitonin were charged into an assist tube (Spitz type of Salschted Inc. measuring 12×75 mm) in the respective volumes shown below, stirred thoroughly, and left to stand overnight at room temperature.
The reaction solution was mixed well with 500 μl of 0.2% BGG (bovine γ-globulin, Sigma), further mixed with 1 ml of 25% PEG #6000, stirred thoroughly and thereafter left to stand at room temperature for 15 min. […] After removing the supernatant by aspiration, the radioactivity level of the residue was measured with a gamma-counter. […]

[5] = system: Rats; test: Effects of calcitonins on the inhibition of body weight gain and appetite; conditions: intramuscular, 12.5, 50 and 200 IU/kg, 24 h later
Description: Each of the calcitonins was administered in three different doses: 12.5 IU/kg, 50 IU/kg and 200 IU/kg. For the body weight changes, the measured values were averaged for 5 rats, and for the food consumption, the measured values for 5 rats were added together.

[6] = system: Female beagles; test: Effects of calcitonins on gastric emptying time (enteric aspirin absorption); conditions: for Delay time (difference in time to aspirin absorption between calcitonin and physiological saline) / Lag time (time from aspirin administration to its absorption): individual animals
Description: as §1, §2, §3

| SMILES | action in delaying the gastric emptying time [1] | effect on elevated blood (plasma) calcium concentration [2] | delay of the occurrence of the next IMC ([3]; dose of 3 μg/kg i.v.) [days] | effect on the IMC / gastrointestinal motility [3] | dose at which competition with 125I labelled salmon calcitonin started [4] | body weight change (inhibition of body weight gain) ([5]; FIG. 3) | food consumption (appetite) ([5]; FIG. 4) | action in delaying the gastric emptying time ([6]; beagles, summary of Table 9) | Delay time (difference in time to aspirin absorption between calcitonin and physiological saline) ([6]; dose 6 μg (1.2 IU)/kg i.v.) | Lag time (time from aspirin administration to its absorption) ([6]; dose 6 μg (1.2 IU)/kg i.v.) | Delay time (difference in time to aspirin absorption between calcitonin and physiological saline) ([6]; dose 100 μg (20.0 IU)/kg i.v.) | Lag time (time from aspirin administration to its absorption) ([6]; dose 100 μg (20.0 IU)/kg i.v.) |
| --- | --- | --- | --- | --- | --- | --- | --- | --- | --- | --- | --- | --- |
| CC(C)C[C@H](NC(=O)[C@H](CCCCN)NC(=O)CNC(=O)[C@H](CC(C)C)NC(=O)[C@@H](NC(=O)[C@@H]1CSSC[C@H](N)C(=O)N[C@@H](CO)C(=O)N[C@@H](CC(N)=O)C(=O)N[C@@H](CC(C)C)C(=O)N[C@@H](CO)C(=O)N[C@@H]([C@@H](C)O)C(=O)N1)C(C)C)C(=O)N[C@@H](CO)C(=O)N[C@@H](CCC(N)=O)C(=O)N[C@@H](CCC(=O)O)C(=O)N[C@@H](CC(C)C)C(=O)N[C@@H](Cc1c[nH]cn1)C(=O)N[C@@H](CCCCN)C(=O)N[C@@H](CC(C)C)C(=O)N[C@@H](CCC(N)=O)C(=O)N[C@H](C(=O)N[C@@H](Cc1ccc(O)cc1)C(=O)N1CCC[C@H]1C(=O)N[C@@H](CCCNC(=N)N)C(=O)N[C@H](C(=O)N[C@@H](CC(N)=O)C(=O)N[C@H](C(=O)NCC(=O)N[C@@H](CO)C(=O)NCC(=O)N[C@H](C(=O)N1CCC[C@H]1C(N)=O)[C@@H](C)O)[C@@H](C)O)[C@@H](C)O)[C@@H](C)O [salmon calcitonin] | very strong action in delaying the gastric emptying time | caused rapid reduction in the elevated blood calcium concentration | 3 | does-dependently inhibited the occurrence of the next IMC | at least 1 ng/ml |  |  |  |  |  |  |  |
| CC[C@H](C)[C@H](NC(=O)[C@H](C)NC(=O)[C@@H](NC(=O)[C@H](CCC(N)=O)NC(=O)[C@@H]1CCCN1C(=O)[C@H](Cc1ccccc1)NC(=O)[C@@H](NC(=O)[C@H](Cc1c[nH]cn1)NC(=O)[C@H](Cc1ccccc1)NC(=O)[C@H](CCCCN)NC(=O)[C@H](CC(N)=O)NC(=O)[C@H](Cc1ccccc1)NC(=O)[C@H](CC(=O)O)NC(=O)[C@H](CCC(N)=O)NC(=O)[C@@H](NC(=O)[C@H](Cc1ccc(O)cc1)NC(=O)[C@@H](NC(=O)CNC(=O)[C@H](CC(C)C)NC(=O)[C@H](CCSC)NC(=O)[C@@H]1CSSC[C@H](N)C(=O)NCC(=O)N[C@@H](CC(N)=O)C(=O)N[C@@H](CC(C)C)C(=O)N[C@@H](CO)C(=O)N[C@@H]([C@@H](C)O)C(=O)N1)[C@@H](C)O)[C@@H](C)O)[C@@H](C)O)[C@@H](C)O)C(=O)NCC(=O)N[C@H](C(=O)NCC(=O)N[C@@H](C)C(=O)N1CCC[C@H]1C(N)=O)C(C)C [human calcitonin] |  | caused rapid reduction in the elevated blood calcium concentration |  | only a slight effect on the IMC |  | no differences | no differences | weak in such action | 1.3 h and 2.6 h and 2.9 h | 3.0 h and 3.9 h and 4.0 h | 4.4 h and 5.0 h | 5.0 h and 6.9 h |
| CSCC[C@H](NC(=O)[C@@H]1CSSC[C@H](N)C(=O)NCC(=O)N[C@@H](CC(N)=O)C(=O)N[C@@H](CC(C)C)C(=O)N[C@@H](CO)C(=O)N[C@@H]([C@@H](C)O)C(=O)N1)C(=O)N[C@@H](CC(C)C)C(=O)NCC(=O)N[C@H](C(=O)N[C@@H](Cc1ccc(O)cc1)C(=O)N[C@H](C(=O)N[C@@H](CCC(N)=O)C(=O)N[C@@H](CC(=O)O)C(=O)N[C@@H](Cc1ccccc1)C(=O)N[C@@H](Cc1c[nH]cn1)C(=O)N[C@@H](CCCCN)C(=O)N[C@@H](CC(C)C)C(=O)N[C@@H](CCC(N)=O)C(=O)N[C@H](C(=O)N[C@@H](Cc1ccc(O)cc1)C(=O)N1CCC[C@H]1C(=O)N[C@@H](CCCNC(=N)N)C(=O)N[C@H](C(=O)N[C@@H](CC(N)=O)C(=O)N[C@H](C(=O)NCC(=O)N[C@@H](CO)C(=O)NCC(=O)N[C@H](C(=O)N1CCC[C@H]1C(N)=O)[C@@H](C)O)[C@@H](C)O)[C@@H](C)O)[C@@H](C)O)[C@@H](C)O)[C@@H](C)O [Example 1, (1-16) human/(17-32) salmon hybrid calcitonin] (H-CGNLSTCMLGTYTQDFHKLQTYPRTNTGSGTP-NH2; disulfide 1-7) | more similar to human calcitonin than salmon calcitonin in delaying to gastric emptying time |  |  |  |  |  |  |  |  |  |  |  |
